# Assay results: the NIST ThermoML archive (doi:10.1016/j.fluid.2015.07.017)
# Numbers after ± are expanded uncertainties.
# How the values were obtained:
# [1] = 293.15 K; 101.33 kPa; Liquid; Pycnometric method
# [2] = Boiling temperature at pressure P; conditions: Liquid, Ebulliometric method (Recirculating still)
# [3] = refractive index (Na D-line) (dimensionless); conditions: 298.15 K; 101.33 kPa; Liquid; Standard Abbe refractometry
SMILES,mass density [1],Boiling temperature at pressure P ([2]; 8.17 kPa),Boiling temperature at pressure P ([2]; 12.41 kPa),Boiling temperature at pressure P ([2]; 18.11 kPa),Boiling temperature at pressure P ([2]; 26.67 kPa),Boiling temperature at pressure P ([2]; 36.4 kPa),Boiling temperature at pressure P ([2]; 44.6 kPa),Boiling temperature at pressure P ([2]; 53.33 kPa),Boiling temperature at pressure P ([2]; 59.35 kPa),Boiling temperature at pressure P ([2]; 69.65 kPa),Boiling temperature at pressure P ([2]; 79.9 kPa),Boiling temperature at pressure P ([2]; 87.9 kPa),Boiling temperature at pressure P ([2]; 94.9 kPa),Boiling temperature at pressure P ([2]; 101.33 kPa),Boiling temperature at pressure P ([2]; 112 kPa),refractive index [3]
CCCOCOC [1-(methoxymethoxy)propane],841.4 ± 0.8 kg/m3,29.97 ± 0.11 °C,38.00 ± 0.11 °C,46.03 ± 0.1 °C,54.81 ± 0.1 °C,62.67 ± 0.1 °C,68.11 ± 0.1 °C,73.17 ± 0.1 °C,76.2 ± 0.1 °C,81.07 ± 0.1 °C,85.2 ± 0.1 °C,88.33 ± 0.1 °C,90.82 ± 0.1 °C,92.97 ± 0.1 °C,96.14 ± 0.1 °C,1.3757 ± 0.0007
CO [methanol],791.1 ± 0.7 kg/m3,,,,,,,,,,,,,64.71 ± 0.1 °C,,1.3269 ± 0.0007
CCCO [propan-1-ol],803.7 ± 0.7 kg/m3,,,,,,,,,,,,,97.20 ± 0.1 °C,,1.3836 ± 0.0007
